In PubChem BioAssay AID256 (DTP/NCI, 2004):
Toxic doses and inconclusive results are not listed.

Tested on: CD2F1 mice, L1210 leukemia ip, survival T/C
Experiment: NCI In Vivo Anticancer Drug Screen. Data for tumor model L1210 Leukemia (intraperitoneal) in CD2F1 (CDF1) mice
Settings: higher = longer survival
Procedure, shortened: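 Mice carrying a transplanted tumor received test compound or vehicle alone. The value is the measurement in the treated group divided by that in the vehicle-treated control group.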

[1] = endpoint: mean survival time, dose: 100.0 mg/kg/injection, schedule: Q01DX009 (ip), vehicle: saline
[2] = endpoint: mean survival time, dose: 200.0 mg/kg/injection, schedule: Q01DX009 (ip), vehicle: saline
[3] = endpoint: mean survival time, dose: 400.0 mg/kg/injection, schedule: Q01DX009 (ip), vehicle: saline
[4] = endpoint: mean survival time, dose: 100.0 mg/kg/injection, schedule: Q04DX003 (ip), vehicle: saline
[5] = endpoint: mean survival time, dose: 200.0 mg/kg/injection, schedule: Q04DX003 (ip), vehicle: saline
[6] = endpoint: mean survival time, dose: 400.0 mg/kg/injection, schedule: Q04DX003 (ip), vehicle: saline
[7] = endpoint: mean survival time, dose: 100.0 mg/kg/injection, schedule: Q01DX001 (ip), vehicle: saline with Tween-80
[8] = endpoint: mean survival time, dose: 200.0 mg/kg/injection, schedule: Q01DX001 (ip), vehicle: saline with Tween-80
[9] = endpoint: mean survival time, dose: 400.0 mg/kg/injection, schedule: Q01DX001 (ip), vehicle: saline with Tween-80
[10] = endpoint: mean survival time, dose: 100.0 mg/kg/injection, schedule: Q04DX003 (ip), vehicle: saline with Tween-80
[11] = endpoint: mean survival time, dose: 200.0 mg/kg/injection, schedule: Q04DX003 (ip), vehicle: saline with Tween-80
[12] = endpoint: mean survival time, dose: 400.0 mg/kg/injection, schedule: Q04DX003 (ip), vehicle: saline with Tween-80
[13] = endpoint: mean survival time, dose: 50.0 mg/kg/injection, schedule: Q01DX009 (ip), vehicle: saline with Tween-80
[14] = endpoint: mean survival time, dose: 100.0 mg/kg/injection, schedule: Q01DX009 (ip), vehicle: saline with Tween-80

CC1=CC(=O)OC(C)(C)C1
T/C [1]: 97 % of control
T/C [2]: 96 % of control
T/C [3]: 114 % of control

COc1ccc(CCN(C=O)c2ccc(OC)c(OC)c2)cc1OC
T/C (endpoint: mean survival time, dose: 12.5 mg/kg/injection, schedule: Q01DX009 (ip), vehicle: water): 96 % of control
T/C (endpoint: mean survival time, dose: 25.0 mg/kg/injection, schedule: Q01DX009 (ip), vehicle: water): 98 % of control
T/C (endpoint: mean survival time, dose: 50.0 mg/kg/injection, schedule: Q01DX009 (ip), vehicle: water): 98 % of control
T/C (endpoint: mean survival time, dose: 100.0 mg/kg/injection, schedule: Q01DX009 (ip), vehicle: water): 100 % of control
T/C (endpoint: mean survival time, dose: 200.0 mg/kg/injection, schedule: Q01DX009 (ip), vehicle: water): 100 % of control

CCC(C)C(C(=O)OCC[N+](C)(CC)CC)c1ccc(C)c(C)c1 (stereo unspecified)
T/C (endpoint: mean survival time, dose: 12.5 mg/kg/injection, schedule: Q04DX003 (ip), vehicle: saline): 93 % of control
T/C (endpoint: mean survival time, dose: 25.0 mg/kg/injection, schedule: Q04DX003 (ip), vehicle: saline): 101 % of control
T/C (endpoint: mean survival time, dose: 50.0 mg/kg/injection, schedule: Q04DX003 (ip), vehicle: saline): 97 % of control

CC12OC3(C)C4CC1C1(C)OC4(C)C3C(O)C21 (stereo unspecified)
T/C (endpoint: mean survival time, dose: 100.0 mg/kg/injection, schedule: Q01DX001 (ip), vehicle: saline): 97 % of control
T/C [4]: 105 % of control
T/C (endpoint: mean survival time, dose: 200.0 mg/kg/injection, schedule: Q01DX001 (ip), vehicle: saline): 97 % of control
T/C [5]: 102 % of control
T/C (endpoint: mean survival time, dose: 400.0 mg/kg/injection, schedule: Q01DX001 (ip), vehicle: saline): 100 % of control
T/C [6]: 96 % of control

Cc1ccnc(N)c1N
T/C (endpoint: mean survival time, dose: 12.5 mg/kg/injection, schedule: Q01DX009 (ip), vehicle: other): 91 % of control
T/C (endpoint: mean survival time, dose: 25.0 mg/kg/injection, schedule: Q01DX009 (ip), vehicle: other): 94 % of control

CN(C)C(c1ccccc1)C(O)c1ccccc1 (stereo unspecified)
T/C (endpoint: mean survival time, dose: 75.0 mg/kg/injection, schedule: Q01DX001 (ip), vehicle: saline): 103 % of control
T/C (endpoint: mean survival time, dose: 150.0 mg/kg/injection, schedule: Q01DX001 (ip), vehicle: saline): 97 % of control

CC(=O)OCC1OC(n2cnc(C(=O)O)c2N)C(OC(C)=O)C1OC(C)=O (stereo unspecified)
T/C (endpoint: median survival time, dose: 8.75 mg/kg/injection, schedule: Q01DX005 (ip), vehicle: saline): 98 % of control
T/C (endpoint: median survival time, dose: 17.5 mg/kg/injection, schedule: Q01DX005 (ip), vehicle: saline): 100 % of control
T/C (endpoint: median survival time, dose: 35.0 mg/kg/injection, schedule: Q01DX005 (ip), vehicle: saline): 96 % of control
T/C (endpoint: median survival time, dose: 70.0 mg/kg/injection, schedule: Q01DX005 (ip), vehicle: saline): 96 % of control
T/C (endpoint: median survival time, dose: 140.0 mg/kg/injection, schedule: Q01DX005 (ip), vehicle: saline): 98 % of control

Nc1cc(=O)c2[nH]cnc2[nH]1
T/C (endpoint: mean survival time, dose: 100.0 mg/kg/injection, schedule: Q01DX001 (ip), vehicle: carboxymethylcellulose (CMC)): 95 % of control
T/C (endpoint: mean survival time, dose: 200.0 mg/kg/injection, schedule: Q01DX001 (ip), vehicle: carboxymethylcellulose (CMC)): 104 % of control
T/C (endpoint: mean survival time, dose: 400.0 mg/kg/injection, schedule: Q01DX001 (ip), vehicle: carboxymethylcellulose (CMC)): 101 % of control

COC(=O)c1cc(Cl)ccc1OCC(=O)Nc1ccccc1
T/C [7]: 90 % of control
T/C [8]: 94 % of control
T/C [9]: 94 % of control

COC12C(COC(N)=O)C3=C(C(=O)C(C)=C(N4CC4)C3=O)N1CC1NC12 (stereo unspecified)
T/C (endpoint: mean survival time, dose: 0.14 mg/kg/injection, schedule: Q01DX007 (ip), vehicle: acetone): 124 % of control
T/C (endpoint: mean survival time, dose: 0.25 mg/kg/injection, schedule: Q01DX001 (ip), vehicle: acetone): 106 % of control
T/C (endpoint: mean survival time, dose: 0.33 mg/kg/injection, schedule: Q01DX001 (ip), vehicle: acetone): 116 % of control
T/C (endpoint: mean survival time, dose: 0.5 mg/kg/injection, schedule: Q01DX007 (ip), vehicle: acetone): 153 % of control
T/C (endpoint: mean survival time, dose: 1.0 mg/kg/injection, schedule: Q01DX001 (ip), vehicle: carboxymethylcellulose (CMC)): 151 % of control
T/C (endpoint: mean survival time, dose: 1.5 mg/kg/injection, schedule: Q01DX001 (ip), vehicle: carboxymethylcellulose (CMC)): 114 % of control

FC(F)Cc1cccc(C(F)(F)F)c1
T/C [7]: 107 % of control
T/C (endpoint: mean survival time, dose: 100.0 mg/kg/injection, schedule: Q04DX003 (ip), vehicle: saline sonified): 98 % of control
T/C [8]: 103 % of control
T/C (endpoint: mean survival time, dose: 200.0 mg/kg/injection, schedule: Q04DX003 (ip), vehicle: saline sonified): 100 % of control
T/C [9]: 104 % of control
T/C (endpoint: mean survival time, dose: 400.0 mg/kg/injection, schedule: Q04DX003 (ip), vehicle: saline sonified): 100 % of control

COc1ccc2nc3c(Cl)cccc3c(Oc3ccccc3)c2c1
T/C [7]: 94 % of control
T/C [8]: 92 % of control
T/C [9]: 101 % of control

O=C([O-])C1OC([n+]2ccccc2)C(O)C(O)C1O (stereo unspecified)
T/C (endpoint: median survival time, dose: 12.5 mg/kg/injection, schedule: Q01DX005 (ip), vehicle: saline): 101 % of control
T/C (endpoint: median survival time, dose: 25.0 mg/kg/injection, schedule: Q01DX005 (ip), vehicle: saline): 100 % of control
T/C (endpoint: median survival time, dose: 50.0 mg/kg/injection, schedule: Q01DX005 (ip), vehicle: saline): 107 % of control
T/C (endpoint: median survival time, dose: 100.0 mg/kg/injection, schedule: Q01DX005 (ip), vehicle: saline): 112 % of control
T/C (endpoint: median survival time, dose: 200.0 mg/kg/injection, schedule: Q01DX005 (ip), vehicle: saline): 102 % of control

COC1(C)CCC(=O)O1 (stereo unspecified)
T/C [4]: 96 % of control
T/C [5]: 96 % of control
T/C [6]: 101 % of control

CCc1c2c(nc3ccc(OC(=O)N4CCC(N5CCCCC5)CC4)cc13)-c1cc3c(c(=O)n1C2)COC(=O)[C@]3(O)CC
T/C (endpoint: median survival time, dose: 26.4 mg/kg/injection, schedule: Q04HX004 (iv), vehicle: water): 177 % of control
T/C (endpoint: median survival time, dose: 39.6 mg/kg/injection, schedule: Q04DX002 (ip), vehicle: water): 206 % of control
T/C (endpoint: median survival time, dose: 39.6 mg/kg/injection, schedule: Q04HX004 (iv), vehicle: water): 192 % of control
T/C (endpoint: median survival time, dose: 59.3 mg/kg/injection, schedule: Q04DX002 (ip), vehicle: water): 231 % of control
T/C (endpoint: median survival time, dose: 59.3 mg/kg/injection, schedule: Q04HX004 (iv), vehicle: water): 193 % of control
T/C (endpoint: median survival time, dose: 89.0 mg/kg/injection, schedule: Q04DX002 (ip), vehicle: water): 500 % of control
T/C (endpoint: median survival time, dose: 89.0 mg/kg/injection, schedule: Q04HX004 (iv), vehicle: water): 209 % of control

c1ccc(-c2ccccc2N=C2N=NN=N2)cc1
T/C [7]: 96 % of control
T/C [10]: 103 % of control
T/C [8]: 114 % of control
T/C [11]: 93 % of control
T/C [9]: 94 % of control
T/C [12]: 97 % of control

CC(C)NC(=O)C1CC2c3cccc4[nH]cc(c34)CC2N(C)C1 (stereo unspecified)
T/C (endpoint: mean survival time, dose: 25.0 mg/kg/injection, schedule: Q01DX009 (ip), vehicle: saline with Tween-80): 101 % of control
T/C [13]: 98 % of control
T/C (endpoint: mean survival time, dose: 50.0 mg/kg/injection, schedule: Q04DX003 (ip), vehicle: saline with Tween-80): 96 % of control
T/C [14]: 102 % of control
T/C [10]: 105 % of control

Cc1cccc(OCCOC(=O)Nc2cccc(C(F)(F)F)c2)c1
T/C (endpoint: mean survival time, dose: 90.0 mg/kg/injection, schedule: Q01DX009 (ip), vehicle: acetone): 101 % of control
T/C (endpoint: mean survival time, dose: 180.0 mg/kg/injection, schedule: Q01DX009 (ip), vehicle: acetone): 103 % of control
T/C (endpoint: mean survival time, dose: 360.0 mg/kg/injection, schedule: Q01DX009 (ip), vehicle: acetone): 101 % of control

O=C(O)C(=Cc1ccnc2ccccc12)C(=O)O
T/C [1]: 100 % of control
T/C [10]: 111 % of control
T/C [2]: 94 % of control
T/C [11]: 100 % of control
T/C [3]: 111 % of control
T/C [12]: 98 % of control

O=C(Nc1c(Cl)cccc1Cl)Oc1ccc(Br)cc1
T/C [13]: 103 % of control
T/C [14]: 103 % of control

CCN(CC)CCOC(=O)C(c1ccccc1)C(C)(O)CC (stereo unspecified)
T/C (endpoint: mean survival time, dose: 25.0 mg/kg/injection, schedule: Q01DX009 (ip), vehicle: saline): 101 % of control
T/C (endpoint: mean survival time, dose: 50.0 mg/kg/injection, schedule: Q01DX009 (ip), vehicle: saline): 87 % of control
T/C [1]: 104 % of control
T/C [4]: 88 % of control

Nc1ccc(OCC(=O)O)cc1
T/C [7]: 101 % of control
T/C [8]: 98 % of control
T/C [9]: 110 % of control
